Results on 2 molecules are retold here after patent US5153352A, “Process for preparation of intermediates of carbocyclic nucleoside analogs” (priority 1990, dated 1992).

Data set [1] deals with HSV-1(E-377). Nature of the data set: plaque reduction, HSV-1(E-377) in Vero cells. Format: cell-based, Herpes simplex virus type 1. The settings on record: Human alphaherpesvirus 1, plaque reduction 50%, read-out: MIC50. How it is done: (§1) After the adsorption period, the infected cell monolayers were treated in duplicate with serial dilutions of the test compound. Duplicate cell controls containing medium alone and virus controls containing medium and virus were run simultaneously with the test compound. […] Plaques visible to the unaided eye were counted and the mean number of plaques in the duplicate wells for each compound concentration tested and for the untreated, virus infected controls were determined.

Data set [2] concerns HSV-2. Nature of the data set: plaque reduction, HSV-2 in Vero cells. To be noted: Human alphaherpesvirus 2; HSV-2, Vero, plaque reduction 50%; read-out: MIC50. Format: cell-based, Herpes simplex virus type 2. As for the experimental part:
as §1

The subject of data set [3] is mice. As to the kind of experiment: toxicity in uninfected mice (Herpesvirus 1 study). Format: in vivo, mouse. To be noted: 7 doses. As for the experimental part: Four-week-old female outbred Swiss mice (CD 1, VAF+, Charles River Labs) were housed 5 per Microisolator® cage. Feed and water were supplied ad libitum. Fifteen mice were randomly assigned to each of the following treatment groups:
Test compounds were diluted in 0.4% carboxymethylcellulose (CMC) prepared in phosphate buffered saline (PBS) at concentrations consistent with dosing at 0.1 ml per 10 q of body weight. Compounds were administered subcutaneously once daily for a total of 7 doses. Five mice in each treatment group served as uninfected toxicity controls. The remaining ten mice in each group were challenged intraperitoneally with an LD90 dose of the twelfth in vivo passage of Herpesvirus 1 (strain 123). Virus challenge was administered two hours after the first dose of compound was given. Mortality was monitored daily for 21 days. The mortality rates, average day of death, geometric mean time to death and virus rating were calculated for each treatment group.

Data set [4] concerns Varicella-Zoster Virus. As to the kind of experiment: microbe, parasite or virus in culture. The settings on record: Human alphaherpesvirus 3, Fibroblast, 120 h. In kind it is cell-based, Varicella-Zoster virus (clinical isolate DM625).
A short description of data set [5]: in vitro. The settings on record: human, human foreskin fibroblasts, MTT Assay.
For data set [6], the system named is Human Immunodeficiency Virus (HIV). Nature of the data set: HIV CPE inhibition assay in ATH8 cells. Format: cell-based. Also on record: ID50: unit not given beside the values. How it is done: (§2) The ATH8 human T-cell line expresses high levels of the CD4 surface antigen and is quite sensitive to the cytopathogenic effect (CPE) of HIV. The cells were propagated in RPMI 1640 medium supplemented with 4mM glutamine, 15% heat-inactivated fetal bovine serum (Biocell), antibiotics (50 units of penicillin and […] of streptomycin per ml), and 50 units of recombinant-derived human interleukin-2 (ala-125; AMGen Biologicals) per ml.
The clone H9 cell line is another CD4^+ human T-cell line which is permissive for HIV replication but largely resistant to virus induced CPE. H9 cells productively infected with the HTLV IIIB strain of HIV served as the source of infectious virus. These cells were propagated in RPMI 1640 medium supplemented with glutamine and antibiotics as described above, and with 20% heat-inactivated fetal bovine serum. Freshly harvested, undiluted culture supernatant from the H9/HTLV-IIIB producer cells was used for infectious virus inoculum.
The screening of compounds for antiviral activity was performed using a modification of the CPE inhibition assay originally developed by Broder and co workers. This assay is based on the ability of uninfected ATH8 cells to grow and form a pellet at the bottom of a culture tube. Starting about 4 days after HIV addition, infected ATH8 cells begin to die and the pellet starts to break up. By day 10 a clear differential is observable in the size of the cell pellet in uninfected control wells versus infected control wells. The protective effect of test compounds can be assessed by adding them at varying concentrations to the cultured cells at the time of virus infection, then monitoring the status of the cell pellet.
(§3) ATH8 cells were used as the primary target in the HIV induced CPE inhibition assay. Cells were treated with polybrene (2 ug/ml in growth medium) for 30 minutes at 37° C., then collected by gentle centrifugation (40×g for 15 minutes at room temperature) and resuspended in clarified (8000×g for 15 minutes at 4° C.) supernate freshly harvested from 48 hours post passage H9/HTL IIIB cells. Following a 60-minute adsorption period at 37° C., the cells were dispensed into the U-bottom wells of 96-well trays (1×10^4 cells in 0.1 ml per well). An equal volume (0.1 ml) of supplemented RPMI 1640 medium containing test compound and twice the normal concentration of interleukin-2 was then added to each well. Test compounds were evaluated at seven half-log dilutions ranging from 100 uq/ml to 0.1 uq/ml. […]
(§4) Between 7 and 10 days post infection, all wells were visually monitored for the degree of CPE inhibition as reflected by cell pellet size, and aliquots were taken from selected wells for determination of cell number and viability (based on trypan blue dye exclusion).

Data set [7] in a line: compound cytotoxicity in ATH8 cells (HIV CPE inhibition assay). In kind it is cell-based. The settings on record: human, read-out: MTC. As for the experimental part:
as §2
as §3, with “An equal volume (0.1 ml) of supplemented RPMI 1640 medium containing test compound and twice the normal concentration of interleukin-2 was then added to each well.” left out
as §4

≈ marks a conversion by molar mass, not a printed value. A value given as a limit tells only on which side of the number the result lay.

On to `Nc1nc2c(ncn2C2CC(CO)C2CO)c(=O)[nH]1` (stereo not drawn) [Example 1I, 9-(2',3'-Bis(hydroxymethyl)cyclobutyl)guanine], for which the EC50 in data set [1] was determined as 0.5 µg/mL (≈ 1.88 µM); in data set [2], 1 µg/mL (≈ 3.77 µM); in data set [4] (VZV plaque formation, human foreskin fibroblasts, read-out: MIC50), 1.4 µg/mL (≈ 5.28 µM). The “No. Dead/No. Uninfected” value in data set [3] (3.2 mg/kg s.c. once daily) was 0/5; in data set [3] (10 mg/kg s.c. once daily), 0/5; in data set [3] (32 mg/kg s.c. once daily) it was 0/3. Moreover, the inhibition at 0.1 µg/mL in data set [4] (VZV, 0.1 ug/ml, read-out: Plaque Reduction) was 11.5%. Moreover, the inhibition at 0.32 µg/mL in data set [4] (VZV, 0.32 ug/ml, read-out: Plaque Reduction) turned out to be 18%. The inhibition at 1 µg/mL in data set [4] (VZV, 1.0 ug/ml, read-out: Plaque Reduction) was 47.1%. In addition, the inhibition at 3.2 µg/mL in data set [4] (VZV, 3.2 ug/ml, read-out: Plaque Reduction) is 97.7%. Further, the inhibition at 10 µg/mL in data set [4] (VZV, 10 ug/ml, read-out: Plaque Reduction) stood at 100%. Further, the inhibition at 32 µg/mL in data set [4] (VZV, 32 ug/ml, read-out: Plaque Reduction) was 100%. For the same molecule, the inhibition at 100 µg/mL in data set [4] (read-out: Plaque Reduction) turned out to be 100%. Further, the viability in data set [5] (3.2 ug/ml) was determined as 79%; in data set [5] (10 ug/ml) it was 76%; in data set [5] (32 ug/ml) it was 72%; in data set [5] (100 ug/ml), 62%.

In data set [6], `Nc1ncnc2c1ncn2C1CC(CO)C1CO` (stereo not drawn) [Example 4C, 9-(2',3'-Bis(hydroxymethyl)cyclobutyl)adenine] came in with an ID50 of less than 0.1, a TI of 32 and a VR of 3.5. Further, in data set [7], the MCC amounted to 3.2 µg/mL.
